row,SMILES,melting point [°C]
1,O=C(CBr)OCCCCOC(=O)CBr,62 to 62.5
2,Cc1cc2c(c3ccc(=O)[nH]c13)OC(CNC(=O)[C@@H](C)NC(=O)OCc1ccccc1)C2 (some centres not stated),221 to 222
3,CS(=O)(=O)Nc1cc(C(F)(F)F)ccc1-c1cc(Oc2ccc3cccnc3c2)ncn1,203 to 204
4,CC(=O)C(C#N)c1cccc(Cl)c1 (configuration not stated),92 to 97
5,O=C(O)c1cn(-c2ccc(F)cc2)c2cc(N3CCC(N=Cc4ccc([N+](=O)[O-])cc4)C3)c(F)cc2c1=O (configuration not stated),247 to 248
6,CCCCCCCCCCCCCCCCCCCCCC(=O)Nc1ccn(C2OC(CO)C(O)C2O)c(=O)n1 (configuration not stated),141 to 143
7,Cn1c(C(F)(F)F)cc(=O)n(-c2cc(OCc3cccs3)c(Cl)cc2F)c1=O,156 to 158
8,CC(C)CN(OCc1ccccc1)C(=O)Nc1ccccc1,85 to 87
9,Cc1nc2nsc(N)c2s1,164 to 167
10,O=C(N[C@@H](Cc1ccccc1)C(=O)On1nnc2ccccc21)OCc1ccccc1,120 to 125
11,CCOCc1nc2c(N)nc3ccccc3c2n1CC1(N)CCOCC1,53 to 63
12,CC(C)NCC(O)COc1ccc2c(c1)OC(C)CC2 (configuration not stated),79 to 81
13,CN1C(=O)C(C)(C)C(=O)N(C)c2cc(C(=O)O)ccc21,> 275
14,Cc1noc(C)c1-c1cc(OC2SCC(O)C(O)C2O)ccn1 (configuration not stated),143 to 147
15,CC(O)(C(=O)Nc1ccc(S(=O)(=O)N(c2ccccc2)c2ccccc2)cc1)C(F)(F)F (configuration not stated),217 to 220
16,CCOC(=O)CCCOc1cccc(Oc2nc(OC)cc(OC)n2)c1C=NNc1ccc(Cl)cc1,139
17,COc1cc(C)c(C(=O)c2ccc(OCc3nc(-c4ccccc4)oc3C)cc2)c(O)c1,171 to 172
18,CN1Cc2c(C(N)=O)ncn2-c2ccccc2C1=O,274 to 275
19,O=C(O)CCCCc1nn(-c2ccccc2)c2c1CCC2,98 to 99
20,CC(=O)OCCn1nc(-c2cc(C(C)(C)C)c(O)c(C(C)(C)C)c2)c2c(C)cc(C)nc21,110 to 111
21,CCOC1=NS(=O)(=O)N=C1N[C@@H]1c2cc(OC(F)(F)F)ccc2OC(C)(C)[C@H]1O,192 to 194
22,Nc1scc2c1C(=O)c1ccc(Cl)cc1-2,201 to 202
23,O=C(Cn1c(-c2ccccc2)ccc(NC(=O)OCc2ccccc2)c1=O)NC(Cc1ccccc1)C(=O)C(F)(F)F (configuration not stated),178 to 181
24,COc1ccc2oc(C(=O)c3cc(F)ccc3N3CCOCC3)cc2c1,85 to 88

row,SMILES,melting point [°C]
1,Fc1ccc(/C=C/c2nc(COc3ccc(CCCCn4ccnn4)cc3)co2)cc1,124 to 125
2,Cc1cc(Br)cc(-c2ccc3c(c2)C(C)(C)OC(=S)N3)c1,183 to 184
3,O=Cc1c(Cl)cc(Cl)cc1-c1ccc(F)cc1,73 to 74
4,O=C(NCc1ccccn1)Nc1cc(NC(=O)c2ccccn2)ccn1,206 to 207
5,O=c1c2cccc(F)c2nc2sccn12,187 to 189
6,CC(C)Oc1ccc(NC(=S)NCc2ccoc2)cc1,89 to 90
7,O=C1c2ccccc2C(=O)N1CCCSc1nccc(NC(=S)NCC(F)(F)F)n1,214 to 215
8,CNC(Cc1ccc(Cl)nc1)=C(N)C(=O)C(F)(F)F,114
9,COc1cc(Nc2cn(Cc3ccccc3)c(=O)c3ccccc23)cc(OC)c1OC,162 to 164
10,O=C1CCC(N2Cc3cc(CNC(=O)Nc4cccc(Oc5ccccn5)c4)ccc3C2=O)C(=O)N1 (configuration not stated),298 to 300
11,COc1ccc(C2=CCN(CCCN3c4cccc5cccc(c45)S3(=O)=O)CC2)cc1,178
12,COC(=O)[C@@H]1CCCN1S(=O)(=O)c1ccc(Cl)c(COc2cccc3c(C)cc(C)nc23)c1Cl,138
13,CCCCC(O)c1cccc(NC(=O)OCc2ccccc2)c1 (configuration not stated),83 to 86
14,Cc1cccc2c1nc(-c1c(F)cccc1F)n2Cc1c(Cl)cccc1Cl,202 to 203
15,CC(C)(C)OC(=O)NCC12CCC1CNC2 (configuration not stated),83 to 86
16,CCOC(=O)c1c(C)nn(C)c1CSC(=N)N,175 to 180
17,O=C(CN1CCN(CCCC(c2ccc(F)cc2)c2ccc(F)cc2)C(C(=O)O)C1)Nc1c(Cl)cccc1Cl (configuration not stated),204
18,CC(C)NCC(O)COc1ncc(Br)nc1N(C)C (configuration not stated),130 to 131
19,CCN(CC)C(C)COc1ccc(NC(=O)C#Cc2ccc(Cl)cc2Cl)cc1 (configuration not stated),70 to 72
20,COc1ccc(-c2nc(CSCCO)nc3cc(OC)c(OC)cc23)cc1OC,154 to 155
21,CCCOc1ccc2c(c1)C(N(C)S(C)(=O)=O)C(O)C(C)(C)O2 (configuration not stated),149 to 151
22,O=C(O)CC(NS(=O)(=O)c1ccc2ccccc2c1)c1ccc2c(c1)OCO2 (configuration not stated),173 to 175
23,COc1cccc2c(C)c3n(c(=O)c12)CCCS3,122 to 123
24,O=C(O)CSc1nc(-c2ccccc2)c(-c2ccccc2)o1,66 to 68

row,SMILES,melting point [°C]
1,Cc1nnc2n1-c1ccccc1NC2(C)C,177 to 178
2,O=C(Nc1ccc(Br)cc1)C(=O)N1CCC(Cc2ccccc2)CC1,131 to 132
3,CN1CCNC(=O)c2cccc(N)c21,130 to 133
4,N#CCC(O)(c1ccc(Br)cc1)c1ccc(-c2ccc(Br)cc2)cc1 (configuration not stated),154
5,C=CCN(C)CCCCCCOc1ccc2c(-c3ccc(Br)cc3)cc(C)nc2c1,88 to 93
6,CCCCNc1nc(C)c(C#N)cc1C(=O)OCC,61 to 63
7,Cc1n[nH]c(CC(=O)O)c1Oc1cc(Cl)cc(Cl)c1,156 to 158
8,CN1C(C)(C)CC(CNc2nc(NO)nc(NCC3CC(C)(C)N(C)C(C)(C)C3)n2)CC1(C)C,157 to 160
9,CCCCCCCCCCCCCCCCOc1cc(NS(=O)(=O)c2cc([N+](=O)[O-])ccc2N2CCOCC2)c(OC(C)=O)cc1C,95 to 96
10,CCOCCCCC(=O)c1ccc(S(C)=O)cc1 (configuration not stated),69 to 71
11,CCOC(=O)CC1C(=O)N(CC(C)(C)C)c2ccc(Cl)cc2N(c2ccccc2Cl)C1=O (configuration not stated),152 to 153
12,Oc1ccc2c(c1)OCC(c1ccc(F)cc1)C2c1ccc(OCCN2CCCC2)cc1 (configuration not stated),164 to 167
13,Cc1cc(C)nc(Oc2ccnc3cc(Cl)ccc23)n1,104 to 105
14,COc1ccc(S(=O)(=O)Nc2cccnc2Nc2ccccc2O)cc1,154 to 155
15,CCCN(CCC)CCCn1cc(Br)c2c3c(c(-c4ccccc4Cl)cc21)C(=O)NC3=O,173 to 175
16,Nc1ncnc2c1c(-c1ccc(Oc3ccccc3)cc1)cn2C1CCOC1 (configuration not stated),165 to 166
17,COC(=O)C(=O)c1nsc(NC(=O)Oc2ccccc2)n1,74 to 79
18,O=C(NCc1ccccc1)C1=C(c2ccccc2)C(c2ccccc2)OC1=O (configuration not stated),173 to 175
19,COc1ccc(/C(=C/C=C/C(=O)O)c2cccs2)cc1,214 to 216
20,CCOC(=O)C1=C2CCCN2C(C)=C(C(=O)OC)C1c1cccc([N+](=O)[O-])c1 (configuration not stated),120
21,O=C1COc2ccc(C3=Cc4cc(F)ccc4SC3)cc2N1,229 to 234
22,OCc1cc(Cl)ccc1I,115 to 117

# Further lines, results first:
row,melting point [°C],SMILES
1,246 to 253,COC(=O)Nc1nc2ccc(Oc3ccccn3)cc2[nH]1
2,189 to 193,CC1(C)C=Cc2c(ccc3c2C=CC(=O)C3=O)O1
3,129 to 132,O=C(O)c1ccc2oc(COCc3ccccc3)cc2c1
4,189 to 193,CC(C)c1cc(O)n[nH]1
5,95 to 96,O=C1CCC(CC(O)C(=O)OCc2ccccc2)N1 (configuration not stated)
6,128 to 130,Clc1cc(-c2cnco2)nc(Cl)c1Cl
7,167 to 170,Cc1ccc(C)n1-c1ccc([C@@H](O)CN2C(=O)c3ccccc3C2=O)cn1
8,248 to 249,COc1ccc(Cc2ccc3[nH]c4cnn(C)c4c(=O)c3c2)cc1
9,229 to 233,Cc1csc2c1S(=O)(=O)N(C)C(C(=O)Nc1cccccc1=O)=C2O
10,169 to 170,CCN1C(=O)C(C)(C)C(=O)N(C)c2cc(CN(CCn3cc(C)c4occc4c3=O)Cc3cc(COC)nn3C)ccc21
11,26.5 to 28.1,CC(C)(C)OC(=O)c1cnc(F)cn1
12,163 to 165,O=c1c2ccc(Cl)cc2n(Cc2ccccc2)n2cccc12
13,173 to 174,O=C(O)CCCN(C(=O)c1ccc(Cl)cc1)c1cccc2ccccc12
14,54,CCCCC[C@H]1CC[C@H](C(=O)Oc2ccc(OC(F)F)cc2)CC1
15,209 to 210,O=Cc1cc2ccc3c4ccccc4ccc3c2s1
16,146 to 148,O=CN1CCN(CCSc2nc3ccccc3[nH]2)CC1

row,melting point [°C],SMILES
1,60 to 62,CS(=O)(=O)OC1CCc2ccccc2C1 (configuration not stated)
2,32 to 34,COc1ccc(CC#N)cc1OC1CCCC1
3,53,CC(S)C(=O)NCCS (configuration not stated)
4,118 to 119,CCOc1c(C=O)cc2c3c(cccc13)-c1ccccc1-2
5,193 to 195,COc1cccc2sc(NC(=O)CO)nc12
6,219 to 220,O=C(Nc1ccc(C(=O)c2ccccc2)cc1)c1cc(Cl)cc(Cl)c1
7,145 to 155,CC1CC2C3CCC4=CC(=O)C=CC4(C)C3=CCC2(C)C1C(=O)CN1CCN(c2cc(NC(C)(C)C)nc(NC(C)(C)C)n2)CC1 (configuration not stated)
8,172,CS(=O)(=O)c1cnc2c(c1)CCC(c1ccc(Cl)c(Cl)c1)O2 (configuration not stated)
9,99 to 100,CC(=O)OCc1nn(C(C)=O)c2cccc(OCc3ccccc3)c12
10,103 to 105,CCCCc1nn(-c2cc(NC(=O)CC)ccc2Cl)c(=O)n1Cc1ccc(-c2ccccc2S(=O)(=O)NC(C)(C)C)cc1F
11,292 to 295,Cn1c(=O)c(-c2ccc(Cl)cc2Cl)cc2c3cc(-c4nc(NC(=O)C5CC5)no4)ccc3n(C)c21
12,139 to 141,O=C1N(Cc2ccc(C(F)(F)F)o2)c2ccc(F)cc2C12COc1cc3c(cc12)OCO3 (configuration not stated)
13,104 to 106,CCCCCCCCCCNC(=O)c1ccc(N(CC(=O)OC)CC(=O)OC)cc1
14,153 to 155,NCCCCC1Cc2ccc(C3=NNC(=O)CC3)cc2C1 (configuration not stated)
15,178 to 179,Cc1nc(-n2cnn(Cc3ccc(F)cc3)c2=O)sc1C(=O)NCc1cc[nH]n1
16,138 to 139,O=C1CCC(O)(c2ccc(Cl)cc2)CC1

# Reference: a melting point compilation (Tetko et al.; mined from patent text by program, amines drawn as free bases though some values may be those of a salt)
